# Assay results from article PMC12090182, “Repurposing of the RIPK1-Selective Benzo[1,4]oxazepin-4-one Scaffold for the Development of a Type III LIMK1/2 Inhibitor” (ACS Chemical Biology, 2025).
# System: MRC-9 cells
# Assay: Multiplex high-content viability assessment
# Format: cell-based
# Conditions: human fibroblast
# In short: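 HEK293T and U2OS cells (DMEM) and MRC-9 fibroblasts (EMEM) exposed to compounds at 1 and 10 μM. Live-cell confocal imaging of cell shape and fluorescence before and at 12, 24 and 48 h. Normalized to 0.1% DMSO; biological duplicates with SEM.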
# [1] = 1 µM, 0 h, biological replicate 1
# [2] = 1 µM, 0 h, biological replicate 2
# [3] = 1 µM, 12 h, biological replicate 1
# [4] = 1 µM, 12 h, biological replicate 2
# [5] = 1 µM, 24 h, biological replicate 1
# [6] = 1 µM, 24 h, biological replicate 2
# [7] = 1 µM, 48 h, biological replicate 1
# [8] = 1 µM, 48 h, biological replicate 2
# [9] = 10 µM, 0 h, biological replicate 1
# [10] = 10 µM, 0 h, biological replicate 2
# [11] = 10 µM, 12 h, biological replicate 1
# [12] = 10 µM, 12 h, biological replicate 2
# [13] = 10 µM, 24 h, biological replicate 1
# [14] = 10 µM, 24 h, biological replicate 2
# [15] = 10 µM, 48 h, biological replicate 1
# [16] = 10 µM, 48 h, biological replicate 2
smiles,measurement,setting,value
CC(C)C(=O)Nc1ncc(-c2cc(C(F)F)nn2-c2c(Cl)cccc2Cl)s1 [LIMKi3],Cell count normalized to cells treated with DMSO control,[1],1.034
same,Cell count per well,[1],155
same,Population Fragmented Nuclei (%),[1],25.33%
same,Population Healthy Nuclei (%),[1],53.33%
same,Population Pyknosed Nuclei (%),[1],21.33%
same,Population apoptotic cell (%),[1],34.38%
same,Population cell that influence microtubule strucutre (%),[1],18.75%
same,Population with increased mitochondrial mass (%),[1],7.50%
same,Population with membrane disruption (%),[1],1.25%
same,Cell count normalized to cells treated with DMSO control,[2],0.869
same,Cell count per well,[2],155
same,Population Fragmented Nuclei (%),[2],31.13%
same,Population Healthy Nuclei (%),[2],41.06%
same,Population Pyknosed Nuclei (%),[2],27.81%
same,Population apoptotic cell (%),[2],38.10%
same,Population cell that influence microtubule strucutre (%),[2],48.39%
same,Population with increased mitochondrial mass (%),[2],11.29%
same,Population with membrane disruption (%),[2],8.06%
same,Cell count normalized to cells treated with DMSO control,[3],0.9165
same,Cell count per well,[3],138
same,Population Fragmented Nuclei (%),[3],20.00%
same,Population Healthy Nuclei (%),[3],63.70%
same,Population Pyknosed Nuclei (%),[3],16.30%
same,Population apoptotic cell (%),[3],22.73%
same,Population cell that influence microtubule strucutre (%),[3],25.58%
same,Population with increased mitochondrial mass (%),[3],5.81%
same,Population with membrane disruption (%),[3],1.16%
same,Cell count normalized to cells treated with DMSO control,[4],0.8765
same,Cell count per well,[4],146
same,Population Fragmented Nuclei (%),[4],30.94%
same,Population Healthy Nuclei (%),[4],44.60%
same,Population Pyknosed Nuclei (%),[4],24.46%
same,Population apoptotic cell (%),[4],35.29%
same,Population cell that influence microtubule strucutre (%),[4],75.81%
same,Population with increased mitochondrial mass (%),[4],11.29%
same,Population with membrane disruption (%),[4],20.97%
same,Cell count normalized to cells treated with DMSO control,[5],0.9351
same,Cell count per well,[5],141
same,Population Fragmented Nuclei (%),[5],15.83%
same,Population Healthy Nuclei (%),[5],69.06%
same,Population Pyknosed Nuclei (%),[5],15.11%
same,Population apoptotic cell (%),[5],33.33%
same,Population cell that influence microtubule strucutre (%),[5],33.33%
same,Population with increased mitochondrial mass (%),[5],7.29%
same,Population with membrane disruption (%),[5],0.00%
same,Cell count normalized to cells treated with DMSO control,[6],0.8553
same,Cell count per well,[6],141
same,Population Fragmented Nuclei (%),[6],38.85%
same,Population Healthy Nuclei (%),[6],41.73%
same,Population Pyknosed Nuclei (%),[6],19.42%
same,Population apoptotic cell (%),[6],40.74%
same,Population cell that influence microtubule strucutre (%),[6],62.07%
same,Population with increased mitochondrial mass (%),[6],12.07%
same,Population with membrane disruption (%),[6],20.69%
same,Cell count normalized to cells treated with DMSO control,[7],0.9887
same,Cell count per well,[7],150
same,Population Fragmented Nuclei (%),[7],26.21%
same,Population Healthy Nuclei (%),[7],62.07%
same,Population Pyknosed Nuclei (%),[7],11.72%
same,Population apoptotic cell (%),[7],52.94%
same,Population cell that influence microtubule strucutre (%),[7],31.11%
same,Population with increased mitochondrial mass (%),[7],6.67%
same,Population with membrane disruption (%),[7],0.00%
same,Cell count normalized to cells treated with DMSO control,[8],0.8351
same,Cell count per well,[8],136
same,Population Fragmented Nuclei (%),[8],42.54%
same,Population Healthy Nuclei (%),[8],45.52%
same,Population Pyknosed Nuclei (%),[8],11.94%
same,Population apoptotic cell (%),[8],37.50%
same,Population cell that influence microtubule strucutre (%),[8],77.05%
same,Population with increased mitochondrial mass (%),[8],14.75%
same,Population with membrane disruption (%),[8],9.84%
same,Cell count normalized to cells treated with DMSO control,[9],1.054
same,Cell count per well,[9],158
same,Population Fragmented Nuclei (%),[9],19.48%
same,Population Healthy Nuclei (%),[9],62.99%
same,Population Pyknosed Nuclei (%),[9],17.53%
same,Population apoptotic cell (%),[9],44.44%
same,Population cell that influence microtubule strucutre (%),[9],22.68%
same,Population with increased mitochondrial mass (%),[9],9.28%
same,Population with membrane disruption (%),[9],0.00%
same,Cell count normalized to cells treated with DMSO control,[10],1.02
same,Cell count per well,[10],182
same,Population Fragmented Nuclei (%),[10],18.39%
same,Population Healthy Nuclei (%),[10],59.77%
same,Population Pyknosed Nuclei (%),[10],21.84%
same,Population apoptotic cell (%),[10],50.00%
same,Population cell that influence microtubule strucutre (%),[10],38.46%
same,Population with increased mitochondrial mass (%),[10],6.73%
same,Population with membrane disruption (%),[10],4.81%
same,Cell count normalized to cells treated with DMSO control,[11],1.2685
same,Cell count per well,[11],191
same,Population Fragmented Nuclei (%),[11],21.91%
same,Population Healthy Nuclei (%),[11],61.24%
same,Population Pyknosed Nuclei (%),[11],16.85%
same,Population apoptotic cell (%),[11],40.00%
same,Population cell that influence microtubule strucutre (%),[11],92.66%
same,Population with increased mitochondrial mass (%),[11],15.60%
same,Population with membrane disruption (%),[11],0.92%
same,Cell count normalized to cells treated with DMSO control,[12],1.111
same,Cell count per well,[12],185
same,Population Fragmented Nuclei (%),[12],27.68%
same,Population Healthy Nuclei (%),[12],47.46%
same,Population Pyknosed Nuclei (%),[12],24.86%
same,Population apoptotic cell (%),[12],52.27%
same,Population cell that influence microtubule strucutre (%),[12],92.86%
same,Population with increased mitochondrial mass (%),[12],14.29%
same,Population with membrane disruption (%),[12],21.43%
same,Cell count normalized to cells treated with DMSO control,[13],1.273
same,Cell count per well,[13],192
same,Population Fragmented Nuclei (%),[13],24.02%
same,Population Healthy Nuclei (%),[13],64.25%
same,Population Pyknosed Nuclei (%),[13],11.73%
same,Population apoptotic cell (%),[13],42.86%
same,Population cell that influence microtubule strucutre (%),[13],93.04%
same,Population with increased mitochondrial mass (%),[13],32.17%
same,Population with membrane disruption (%),[13],1.74%
same,Cell count normalized to cells treated with DMSO control,[14],1.116
same,Cell count per well,[14],184
same,Population Fragmented Nuclei (%),[14],31.58%
same,Population Healthy Nuclei (%),[14],47.95%
same,Population Pyknosed Nuclei (%),[14],20.47%
same,Population apoptotic cell (%),[14],48.57%
same,Population cell that influence microtubule strucutre (%),[14],92.68%
same,Population with increased mitochondrial mass (%),[14],21.95%
same,Population with membrane disruption (%),[14],6.10%
same,Cell count normalized to cells treated with DMSO control,[15],1.325
same,Cell count per well,[15],201
same,Population Fragmented Nuclei (%),[15],25.53%
same,Population Healthy Nuclei (%),[15],63.83%
same,Population Pyknosed Nuclei (%),[15],10.64%
same,Population apoptotic cell (%),[15],70.00%
same,Population cell that influence microtubule strucutre (%),[15],98.33%
same,Population with increased mitochondrial mass (%),[15],42.50%
same,Population with membrane disruption (%),[15],0.83%
same,Cell count normalized to cells treated with DMSO control,[16],1.216
same,Cell count per well,[16],198
same,Population Fragmented Nuclei (%),[16],37.50%
same,Population Healthy Nuclei (%),[16],43.23%
same,Population Pyknosed Nuclei (%),[16],19.27%
same,Population apoptotic cell (%),[16],51.35%
same,Population cell that influence microtubule strucutre (%),[16],90.36%
same,Population with increased mitochondrial mass (%),[16],21.69%
same,Population with membrane disruption (%),[16],12.05%
